In ChEMBL document CHEMBL1909046, “DrugMatrix in vitro pharmacology data”:

How the values were obtained:
[1] = target: 5-hydroxytryptamine receptor 4 (Cavia porcellus, UniProt O70528); format: cell membranes, Dunkin-Hartley, Striatum, Membrane; conditions: for Ki: read-out: Ki; as to all read-outs here: in other assays of this panel Not Active means under 50% inhibition at 10 µM
[2] = target: T1, C-X-C chemokine receptor type 2 (Homo sapiens, UniProt P25025); format: cell membranes, Membrane; conditions: cho-k1; also: in other assays of this panel Not Active means under 50% inhibition at 10 µM
T1 sequence (P25025 whole entry): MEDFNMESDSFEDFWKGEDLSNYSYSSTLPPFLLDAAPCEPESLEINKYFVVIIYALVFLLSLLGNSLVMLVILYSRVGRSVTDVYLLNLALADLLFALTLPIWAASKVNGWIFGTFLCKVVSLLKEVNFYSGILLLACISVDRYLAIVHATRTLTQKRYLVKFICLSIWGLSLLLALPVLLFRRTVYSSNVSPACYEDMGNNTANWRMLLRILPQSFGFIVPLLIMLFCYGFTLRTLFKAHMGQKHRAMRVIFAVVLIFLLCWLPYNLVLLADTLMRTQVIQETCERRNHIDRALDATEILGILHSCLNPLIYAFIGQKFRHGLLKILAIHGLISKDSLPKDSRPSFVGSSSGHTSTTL

Insulin receptor = Insulin receptor (Rattus norvegicus, UniProt P15127); format: cell membranes, Wistar, Liver, Membrane; also: in other assays of this panel Not Active means under 50% inhibition at 10 µM
[3] = DRUGMATRIX: Phorbol Ester radioligand binding (ligand: [3H] PDBu); format: cell membranes, Mus musculus, ICR, Brain, Membrane; conditions: Not Active = under 50% inhibition at 10 µM
[4] = target: Mitogen-activated protein kinase 14 (Homo sapiens, UniProt Q16539); design: species or system Escherichia coli;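 also: inhibition of p38alpha enzyme activity in a biochemical kinase assay, with myelin basic protein serving as substrate; in other assays of this panel Not Active means under 50% inhibition at 10 µM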
Adenosine receptor A2a = Adenosine receptor A2a (Homo sapiens, UniProt P29274); test: DRUGMATRIX: Adenosine A2A radioligand binding (ligand: […]); format: cell membranes, HEK293, Membrane; conditions: hek293; Not Active = under 50% inhibition at 10 µM
Cytochrome P450 2D6 = Cytochrome P450 2D6 (Homo sapiens, UniProt P10635); conditions: bti-tn-5b1-4; also: in other assays of this panel Not Active means under 50% inhibition at 10 µM
Chain of Cytochrome P450 2D6 (P10635 whole entry): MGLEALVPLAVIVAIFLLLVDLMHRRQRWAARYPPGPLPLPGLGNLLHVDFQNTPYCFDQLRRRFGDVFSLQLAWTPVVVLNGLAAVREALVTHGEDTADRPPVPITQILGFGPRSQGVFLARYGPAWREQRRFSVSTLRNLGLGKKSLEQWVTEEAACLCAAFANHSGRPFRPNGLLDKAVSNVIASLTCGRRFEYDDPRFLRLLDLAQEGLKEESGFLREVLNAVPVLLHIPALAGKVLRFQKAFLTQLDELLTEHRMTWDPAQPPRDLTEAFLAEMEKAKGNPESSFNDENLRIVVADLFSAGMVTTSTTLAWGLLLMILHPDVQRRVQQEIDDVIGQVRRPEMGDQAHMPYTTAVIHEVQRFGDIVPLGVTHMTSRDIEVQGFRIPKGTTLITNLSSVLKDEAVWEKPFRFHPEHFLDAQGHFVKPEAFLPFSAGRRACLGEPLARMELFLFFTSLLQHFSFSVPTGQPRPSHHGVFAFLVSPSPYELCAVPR

Chain of Insulin receptor (P15127 27-759 limits assumed): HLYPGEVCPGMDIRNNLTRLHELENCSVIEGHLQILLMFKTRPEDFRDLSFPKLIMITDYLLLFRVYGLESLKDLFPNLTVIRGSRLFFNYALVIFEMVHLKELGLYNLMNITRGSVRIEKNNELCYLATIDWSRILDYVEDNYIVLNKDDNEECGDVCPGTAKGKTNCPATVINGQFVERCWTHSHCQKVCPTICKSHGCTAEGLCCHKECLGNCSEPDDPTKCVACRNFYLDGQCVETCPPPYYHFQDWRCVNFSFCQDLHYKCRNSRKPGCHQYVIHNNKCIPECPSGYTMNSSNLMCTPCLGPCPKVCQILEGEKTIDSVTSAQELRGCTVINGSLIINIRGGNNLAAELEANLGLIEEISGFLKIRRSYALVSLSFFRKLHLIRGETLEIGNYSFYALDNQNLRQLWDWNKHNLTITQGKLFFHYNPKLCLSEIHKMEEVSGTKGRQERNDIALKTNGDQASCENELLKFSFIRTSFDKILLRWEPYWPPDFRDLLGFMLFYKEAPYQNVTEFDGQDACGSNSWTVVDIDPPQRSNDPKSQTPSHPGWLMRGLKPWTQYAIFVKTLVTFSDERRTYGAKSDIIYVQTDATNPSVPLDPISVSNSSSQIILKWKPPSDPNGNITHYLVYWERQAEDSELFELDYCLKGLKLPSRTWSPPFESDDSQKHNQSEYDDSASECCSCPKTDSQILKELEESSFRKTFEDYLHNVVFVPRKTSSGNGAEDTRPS
Chain of Insulin receptor (P15127 764-1383 limits assumed): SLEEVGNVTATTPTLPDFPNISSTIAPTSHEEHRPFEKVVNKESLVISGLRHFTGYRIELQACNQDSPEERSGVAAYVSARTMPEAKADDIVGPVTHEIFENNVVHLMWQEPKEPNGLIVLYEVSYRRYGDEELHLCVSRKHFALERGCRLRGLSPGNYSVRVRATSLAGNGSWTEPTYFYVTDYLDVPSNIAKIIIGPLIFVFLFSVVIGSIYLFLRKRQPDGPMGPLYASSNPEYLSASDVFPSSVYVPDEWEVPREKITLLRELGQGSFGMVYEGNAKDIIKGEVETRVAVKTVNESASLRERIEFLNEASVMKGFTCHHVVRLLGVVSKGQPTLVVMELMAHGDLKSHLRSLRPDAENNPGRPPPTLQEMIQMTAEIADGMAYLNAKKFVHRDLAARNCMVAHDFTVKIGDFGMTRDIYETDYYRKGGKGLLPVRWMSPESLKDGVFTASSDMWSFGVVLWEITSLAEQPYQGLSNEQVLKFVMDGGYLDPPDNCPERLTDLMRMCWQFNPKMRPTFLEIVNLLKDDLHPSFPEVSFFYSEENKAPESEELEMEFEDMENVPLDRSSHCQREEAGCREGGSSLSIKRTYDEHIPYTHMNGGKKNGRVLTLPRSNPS
Chain of 5-hydroxytryptamine receptor 4 (O70528 whole entry): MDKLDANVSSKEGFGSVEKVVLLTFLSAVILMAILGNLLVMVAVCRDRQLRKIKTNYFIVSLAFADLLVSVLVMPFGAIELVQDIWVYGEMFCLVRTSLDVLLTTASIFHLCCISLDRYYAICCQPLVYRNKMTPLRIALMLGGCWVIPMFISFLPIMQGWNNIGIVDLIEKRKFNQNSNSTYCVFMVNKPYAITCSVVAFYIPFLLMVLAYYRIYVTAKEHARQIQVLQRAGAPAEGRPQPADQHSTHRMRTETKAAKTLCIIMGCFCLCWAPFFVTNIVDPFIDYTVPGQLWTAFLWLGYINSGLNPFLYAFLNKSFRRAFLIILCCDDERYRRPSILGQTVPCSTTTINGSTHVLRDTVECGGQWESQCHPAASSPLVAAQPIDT
Chain of Adenosine receptor A2a (P29274 whole entry): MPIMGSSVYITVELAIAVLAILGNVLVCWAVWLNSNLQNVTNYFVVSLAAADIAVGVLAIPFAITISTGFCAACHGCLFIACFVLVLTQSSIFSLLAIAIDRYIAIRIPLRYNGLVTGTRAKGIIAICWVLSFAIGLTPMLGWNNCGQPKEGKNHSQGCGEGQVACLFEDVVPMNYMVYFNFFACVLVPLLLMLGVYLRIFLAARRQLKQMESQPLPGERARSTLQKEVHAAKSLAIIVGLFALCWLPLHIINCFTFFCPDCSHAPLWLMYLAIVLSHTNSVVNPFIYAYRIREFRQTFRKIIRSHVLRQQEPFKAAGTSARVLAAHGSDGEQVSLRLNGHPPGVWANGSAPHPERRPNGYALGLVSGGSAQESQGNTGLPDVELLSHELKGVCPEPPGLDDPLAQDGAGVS
Chain of Mitogen-activated protein kinase 14 (Q16539 whole entry): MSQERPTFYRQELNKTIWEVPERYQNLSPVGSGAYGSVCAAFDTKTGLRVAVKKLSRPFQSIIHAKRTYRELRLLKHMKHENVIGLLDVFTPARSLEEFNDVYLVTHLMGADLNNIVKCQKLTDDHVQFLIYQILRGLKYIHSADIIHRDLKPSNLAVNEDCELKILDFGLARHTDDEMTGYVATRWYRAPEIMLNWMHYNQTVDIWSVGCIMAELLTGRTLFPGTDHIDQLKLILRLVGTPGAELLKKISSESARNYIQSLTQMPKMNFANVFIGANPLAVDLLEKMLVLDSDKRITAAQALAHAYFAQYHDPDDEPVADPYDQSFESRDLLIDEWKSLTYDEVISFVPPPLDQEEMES

SMILES	IC50 [1]	IC50 [2]	IC50 (Insulin receptor)	IC50 [3]	Ki [3]	IC50 [4]	IC50 (Adenosine receptor A2a)	IC50 (Cytochrome P450 2D6)	Ki (Cytochrome P450 2D6)	IC50 ([1]; read-out: IC50) [µM]	Ki [1] [µM]	IC50 ([4]; read-out: IC50) [µM]
Cn1c(=O)c2c(ncn2CC2OCCO2)n(C)c1=O [DOXOFYLLINE]	Not Active	Not Active	Not Active	Not Active	Not Active	Not Active	Not Active	Not Active	Not Active			
COc1cccc2c1C(=O)c1c(O)c3c(c(O)c1C2=O)C[C@@](O)(C(=O)CO)C[C@@H]3O[C@H]1C[C@H](N)[C@H](O)[C@H](C)O1 [DOXORUBICIN]		Not Active	Not Active	Not Active	Not Active	Not Active	Not Active	Not Active	Not Active	12.5	2.08	
COc1cccc2c1C(=O)c1c(O)c3c(c(O)c1C2=O)C[C@@](O)(C(=O)CO)C[C@@H]3O[C@H]1C[C@H](N)[C@@H](O)[C@H](C)O1 [EPIRUBICIN]		Not Active	Not Active	Not Active	Not Active	Not Active	Not Active	Not Active	Not Active	7.94	1.32	
C[C@]12CC[C@@H]3c4ccc(OC(=O)c5ccccc5)cc4CC[C@H]3[C@@H]1CC[C@@H]2O [ESTRADIOL BENZOATE]	Not Active	Not Active	Not Active	Not Active	Not Active	Not Active	Not Active	Not Active	Not Active			
C[C@]12CC[C@@H]3c4ccc(O)cc4CC[C@H]3[C@@H]1CC[C@@H]2O [ESTRADIOL]	Not Active	Not Active	Not Active	Not Active	Not Active	Not Active	Not Active	Not Active	Not Active			
CC[C@@H](CO)NCCN[C@@H](CC)CO [ETHAMBUTOL]	Not Active	Not Active	Not Active	Not Active	Not Active	Not Active	Not Active	Not Active	Not Active			
CC1(C)O[C@@H]2C[C@H]3[C@@H]4C[C@H](F)C5=CC(=O)C=C[C@]5(C)[C@H]4[C@@H](O)C[C@]3(C)[C@]2(C(=O)CO)O1 [FLUNISOLIDE]	Not Active	Not Active	Not Active	Not Active	Not Active	Not Active	Not Active	Not Active	Not Active			
CC1(C)O[C@@H]2C[C@H]3[C@@H]4C[C@H](F)C5=CC(=O)C=C[C@]5(C)[C@@]4(F)[C@@H](O)C[C@]3(C)[C@]2(C(=O)CO)O1 [FLUOCINOLONE ACETONIDE]	Not Active	Not Active	Not Active	Not Active	Not Active	Not Active	Not Active	Not Active	Not Active			
CC1(C)O[C@@H]2C[C@H]3[C@@H]4C[C@H](F)C5=CC(=O)CC[C@]5(C)[C@H]4[C@@H](O)C[C@]3(C)[C@]2(C(=O)CO)O1 [FLURANDRENOLIDE]	Not Active	Not Active	Not Active	Not Active	Not Active	Not Active	Not Active	Not Active	Not Active			
Cc1ccc(S(=O)(=O)NC(=O)NN2CC3CCCC3C2)cc1 (stereo not given) [GLICLAZIDE]	Not Active	Not Active	Not Active	Not Active	Not Active	Not Active	Not Active	Not Active	Not Active			
CC(C)Cc1ccc(C(C)C(=O)O)cc1 (stereo not given) [IBUPROFEN]	Not Active	Not Active	Not Active	Not Active	Not Active	Not Active	Not Active	Not Active	Not Active			
COc1ccc2c(c1)c(CC(=O)O)c(C)n2C(=O)c1ccc(Cl)cc1 [INDOMETHACIN]	Not Active	Not Active	Not Active	Not Active	Not Active	Not Active	Not Active	Not Active	Not Active			
CCc1c2c(nc3ccc(OC(=O)N4CCC(N5CCCCC5)CC4)cc13)-c1cc3c(c(=O)n1C2)COC(=O)[C@]3(O)CC [IRINOTECAN]	Not Active	Not Active	Not Active	Not Active	Not Active	Not Active	Not Active	Not Active	Not Active			
CC(C(=O)O)c1cccc(C(=O)c2ccccc2)c1 (stereo not given) [KETOPROFEN]	Not Active	Not Active	Not Active	Not Active	Not Active	Not Active	Not Active	Not Active	Not Active			
Nc1ccn([C@@H]2CS[C@H](CO)O2)c(=O)n1 [LAMIVUDINE]	Not Active	Not Active	Not Active	Not Active	Not Active	Not Active	Not Active	Not Active	Not Active			
O=S(=O)([O-])CCS.[Na+] [MESNA]	Not Active	Not Active	Not Active	Not Active	Not Active	Not Active	Not Active	Not Active	Not Active			
C#C[C@]1(O)CC[C@H]2[C@@H]3CCc4cc(OC)ccc4[C@H]3CC[C@@]21C [MESTRANOL]	Not Active	Not Active	Not Active	Not Active	Not Active	Not Active	Not Active	Not Active	Not Active			
CC(=O)Nc1cccc(O)c1 [METACETAMOL]	Not Active	Not Active	Not Active	Not Active	Not Active	Not Active	Not Active	Not Active	Not Active			
Cc1ncc([N+](=O)[O-])n1CCO [METRONIDAZOLE]	Not Active	Not Active	Not Active	Not Active	Not Active	Not Active	Not Active	Not Active	Not Active			
CC(C)(C(=O)c1cccnc1)c1cccnc1 [METYRAPONE]	Not Active	Not Active	Not Active	Not Active	Not Active	Not Active	Not Active	Not Active	Not Active			
Oc1ccc(OCc2ccccc2)cc1 [MONOBENZONE]	Not Active	Not Active	Not Active	Not Active	Not Active	Not Active	Not Active	Not Active	Not Active			
CC(C)(Oc1ccc(C2CCCc3ccccc32)cc1)C(=O)O (stereo not given) [NAFENOPIN]	Not Active	Not Active	Not Active	Not Active	Not Active		Not Active	Not Active	Not Active			3.74
CC(C)[C@H]1CC[C@H](C(=O)N[C@H](Cc2ccccc2)C(=O)O)CC1 [NATEGLINIDE]	Not Active	Not Active	Not Active	Not Active	Not Active	Not Active	Not Active	Not Active	Not Active			
CCN[C@@H]1C[C@H](N)[C@@H](O[C@H]2OC(CN)=CC[C@H]2N)[C@H](O)[C@H]1O[C@H]1OC[C@](C)(O)[C@H](NC)[C@H]1O [NETILMICIN]	Not Active	Not Active	Not Active	Not Active	Not Active	Not Active	Not Active	Not Active	Not Active			
CCOC(=O)C1=C(C)NC(C)=C(C(=O)OC)C1c1cccc([N+](=O)[O-])c1 (stereo not given) [NITRENDIPINE]	Not Active	Not Active	Not Active	Not Active	Not Active	Not Active	Not Active	Not Active	Not Active			
C#C[C@]1(OC(C)=O)CC[C@H]2[C@@H]3CCC4=CC(=O)CC[C@@H]4[C@H]3CC[C@@]21C [NORETHINDRONE ACETATE]	Not Active	Not Active	Not Active	Not Active	Not Active	Not Active	Not Active	Not Active	Not Active			
COc1ccc2[nH]c([S+]([O-])Cc3ncc(C)c(OC)c3C)nc2c1 (stereo not given) [OMEPRAZOLE]	Not Active	Not Active	Not Active	Not Active	Not Active	Not Active	Not Active	Not Active	Not Active			
